Source: patent US7074823B2, “Fluorescent probe for zinc” (Daiichi Pure Chemical Co., Ltd., priority 2000, dated 2006)

Legend:
[1] = conventional probes, short wavelength excitation light; cited from earlier work
[2] = Selectivity for zinc ions: fluorescence intensity in buffer containing various metal ions; conditions: 1 μM compound
Procedure: Compound 6 obtained in Example 1 and Compound 12 obtained in Example 2 were used to evaluate selectivity for zinc ions. 5 μM of Compound 6 or Compound 12 was added in 100 mM HEPES buffer (pH 7.5) containing various metal ions (5 μM or 5 mM). The fluorescence intensity was measured at the excitation wavelength of 491 nm and the fluorescence wavelength of 513 nm for Compound 6, and the excitation wavelength of 492 nm and the fluorescence wavelength of 514 nm for Compound 12. The results are shown in FIG. 1 (Compound 6) and FIG. 2 (Compound 12). 1 μM of Compound 21 was added in 100 mM HEPES buffer (pH 7.5) containing various metal ions (1 μM or 5 mM), and the fluorescence intensity was measured at the excitation wavelength of 505 nm and the fluorescence wavelength of 522 nm.
In the figures, the fluorescence intensities on the ordinate axis are shown as numerical values with addition of each metal ion relative to the fluorescence intensity without addition of metal ion which is taken as 1.

[3] = Changes in fluorescence intensity with relation to pH changes; assay type: physicochemical; conditions: pH of around 7.4 (intracellular pH)
Procedure: Changes in fluorescence intensity of Compound 12, Compound 21, and zinc complexes thereof were investigated with relation to pH changes. The fluorescence intensity was measured at the excitation wavelength of 492 nm and the fluorescence wavelength of 514 nm for Compound 12, and the excitation wavelength of 505 nm and the fluorescence wavelength of 522 nm for Compound 21.
Buffers used are as follows.
100 mM Cl2CHCOOH—Cl2CHCOONa buffer (pH 2.0)
100 mM ClCH2COOH—ClCH2COONa buffer (pH 3.0)
100 mM CHES buffer (pH 8.5)

[4] = Changes with time in fluorescence intensity after addition of zinc ion; conditions: 5 μM compound, zinc ion 5 μM or 50 μM, 100 mM HEPES pH 7.5
Procedure: Zinc ion (final concentration 5 μM or 50 μM) was added in 100 mM HEPES (pH 7.5) containing 5 μM Compound 6, Compound 12, or ACF-1 (a compound having a cyclic polyamine moiety described as Compound (20) in Example 1 in Japanese Patent Application No. (Hei) 11-40325) to measure fluorescence intensity. The fluorescence intensity was measured at the excitation wavelength of 491 nm and the fluorescence wavelength of 513 nm for Compound 6, the excitation wavelength of 492 nm and the fluorescence wavelength of 514 nm for Compound 12, and the excitation wavelength of 495 nm and the fluorescence wavelength of 515 nm for ACF-1. In the figure, the ordinate axis represents relative fluorescence intensity. […] Accordingly, the use of the compound according to the present invention enables very quick detection of zinc, and also enables the detection of rapid change in the concentration of zinc.

COc1cc(NS(=O)(=O)c2ccc(C)cc2)c2ncccc2c1 [TSQ]
excitation wavelength [1]: 367 nm

CCOC(=O)COc1cc(NS(=O)(=O)c2ccc(C)cc2)c2nc(C)ccc2c1 [Zinquin]
excitation wavelength [1]: 368 nm

O=C1C=C2Oc3cc(O)c(Cl)cc3C(c3ccc(NCCN(Cc4ccccn4)Cc4ccccn4)cc3C(=O)O)C2C=C1Cl (centres unmarked) [Compound 21]
selectivity for zinc ([2]; 100 mM HEPES buffer pH 7.5, various metal ions 1 μM or 5 mM): high selectivity
effect of sodium, potassium, calcium, magnesium on the increase in fluorescence intensity caused by zinc ([2]; HEPES pH 7.5): did not affect
increase in fluorescence intensity on addition of sodium, potassium, calcium and magnesium ([2]; metal ions at high concentration (5 mM), HEPES pH 7.5): almost no increase
stability of fluorescence intensity to pH changes [3]: more stable than Compound 12

CN(C)c1cccc2c(S(=O)(=O)NCCN3CCNCCNCCNCC3)cccc12 [Dansylaminoethylcyclen]
excitation wavelength [1]: 323 nm

CN1CCN(C)CCN(c2ccc(-c3c4ccc(=O)cc-4oc4cc(O)ccc34)cc2)CCN(C)CC1 [ACF-1]
increase of fluorescence intensity with time after zinc ion addition [4]: not instantly increased
